Results reported in US8217042B2, “Pyridopyrazines and their use as modulators of kinases” (Zentaris GmbH, priority 2005, dated 2012).

Assays:
[1] = target: T1, p38alpha (Homo sapiens, UniProt Q16539); test: Cell-free kinase assay (ALPHA technology), p38alpha; format: biochemical; conditions: at 10 μM or 100 μM* ATP, recombinant human kinase
T1 construct: in some cases as full-length kinases, in some cases as truncated fragments
Procedure: (§1) The inhibitory effect of the inventive compounds was tested on various human serine/threonine kinases, tyrosine kinases and lipid kinases in enzymatic assays. Recombinant human kinases, for example Erk2, PI3Kalpha, -beta, -gamma, -delta, p38alpha, p38gamma, Jnk1, Jnk2 and others were used, in some cases as full-length kinases, in some cases as truncated fragments—but at least consisting of the functional kinase domains. The commercial kinase proteins (Proqinase, Upstate) were used as recombinant fusion proteins with GST (glutathione S-transferase) tag or His tag. Depending on the substrate type, the different kinase reactions were quantified by means of suitable ALPHA™ beads (PerkinElmer). […]
(§2) The fluorescence was detected the next morning in a Fusion™ alpha instrument (Perkin Elmer).
(§3) The calculation of % inhibition values per substance concentration was done by means of the following formula from the raw data determined in the Fusion™ alpha:
(§4) The controls were each determined 8 times, the substance samples each twice. 0% control contained neither any ATP nor any substrate; the 100% control contained no test substance. The IC50 values were determined with GraphPadPrism.

[2] = system: Jnk1 + Jnk2; test: Cell-free kinase assay (ALPHA technology), Jnk1 + Jnk2; format: biochemical; conditions: at 10 μM or 100 μM* ATP, recombinant human kinases
Procedure: as §1, §2, §3, §4

[3] = system: MDA-MB468; test: XTT assay, anti-proliferative action, MDA-MB468; format: cell-based; conditions: Homo sapiens, MDA-MB-468, 45 h, MDA-MB468 cells, 45 h incubation
Procedure: The principle of this test is based on the intracellular reduction of the tetrazolium dye XTT (sodium 3′-[1-(phenylaminocarbonyl)-3,4-tetrazolium]bis(4-methoxy-6-nitro)benzenenesulphonic acid, Sigma) to a formazan dye by mitochondrial dehydrogenases.
The dye is formed only by metabolically active cells; its photometrically measurable intensity is a quantitative indicator for the presence of living cells. The reduction in the dye formation as a result of incubation of the cells with substances serves as a parameter for the anti-proliferative action.
The tumour cell lines (ATCC) were seeded in 96-well microtitre plates in a defined cell count (5000 cells/well for BxPC3 and Hct116; 10 000 cells/well for MDA MB468), and then incubated overnight in an incubator at 37° C., 5% CO2 and 95% air humidity. The test substances were made up as stock solutions (10 mM) in DMSO. […] The cell plates were then incubated for 45 h in an incubator at 37° C., 5% CO2 and 95% air humidity.
For the detection reaction, the XTT substrate was admixed with PMS (N-methyldibenzopyrazine methylsulphate, Sigma) and added to the cells, so as to result in a final concentration of 325 μg of XTT/ml and 2.5 μg PMS/ml. The mixture was then incubated for 3 h at 37° C., 95% air humidity. Subsequently the formazan salt formed by cellular dehydrogenases was quantified at an absorption of 490 nm.
The evaluation of the % inhibition values was done by means of the following formula from the values for the optical densities measured in each case at 490 nm:
The controls were determined 8 times each, the substance samples twice each. 0% control contained no cells; the 100% control contained no test substance. The EC50 values were determined with GraphPadPrism.

T1 sequence (Q16539 whole entry, the tested form may be a part): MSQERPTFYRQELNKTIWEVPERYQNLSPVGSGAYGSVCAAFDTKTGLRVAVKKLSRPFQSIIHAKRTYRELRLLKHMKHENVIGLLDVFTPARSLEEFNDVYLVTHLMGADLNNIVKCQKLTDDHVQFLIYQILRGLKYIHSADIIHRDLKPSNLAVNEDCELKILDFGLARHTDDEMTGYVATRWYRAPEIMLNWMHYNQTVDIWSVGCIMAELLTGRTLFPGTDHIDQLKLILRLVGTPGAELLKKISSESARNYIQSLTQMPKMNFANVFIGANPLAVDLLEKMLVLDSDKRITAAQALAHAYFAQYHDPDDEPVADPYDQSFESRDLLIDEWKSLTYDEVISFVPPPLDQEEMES

IC50 [1]: 4 µM | IC50 [2]: > 31.6 µM | EC50 [3]: 16 µM
SMILES: CCNC(=O)Nc1ccc2ncc(Nc3ccc(C)c(NS(C)(=O)=O)c3)nc2n1 [Compound 49, N-{5-[6-(3-Ethylurea)pyrido[2,3-b]pyrazin-3-ylamino]-2-methylphenyl}methanesulphonamide]
